Results reported in patent US8034819B2, “Glucokinase activator” (Kyorin Pharmaceutical Co., Ltd., priority 2007, dated 2011).

Tested on: ICR mice
Assay: Hypoglycemic activity test
Format: in vivo
Settings: compared with compound 1 of the invention
Description: Using ICR mice (male, 7 to 9 weeks, Charles River Laboratories Japan Inc.) the effects of each of the tested compounds on blood glucose levels were measured. Each compound was dissolved in a mixture of 60/40 of Gelucire 44/14 (trade name, manufactured by Gatefosse) and PEG 400, and the resulting mixture was orally administered (30 mg/kg, 10 mL/kg) to the mice, which had not been fed for two hours. Blood was collected by a blood collection tube coated with dipotassium ethylenediamine tetraacetate from the tail vein before administration (pre-value) and at points 0.5, 2, and 4 hours after administration. The collected blood was separated by centrifugation (4° C., 3,600×g, 3 minutes), to obtain blood plasma samples.
Each sample was diluted 5-fold with physiological saline, and the blood glucose level was measured using glucose CII-test Wako (trade name, manufactured by Wako Pure Chemical Industries Ltd.). 10 μL each of one of the samples, physiological saline, and 100 mg/dL of glucose standard solution (200 mg/dL of glucose standard solution diluted two-fold with physiological saline) were placed in each well of a 96 well flat bottom plate. Then, 150 μL per well of a developing solution was added, and the color was developed by standing for 5 minutes at 37° C. Measurement was carried out at OD 505 nm using an En Vision 2103 Multilabel Reader (trade name, manufactured by PerkinElmer). The decrease in Σ glucose from the decrease in glucose of each collected point with respect to the pre-value (average of the decrease in glucose of each collected point with respect to the pre-value) was calculated.

SMILES	hypoglycemic activity (in words)
O=C(Nc1nccs1)C(CC1CC(F)C(F)C1)c1ccc(S(=O)(=O)C2CC2)cc1 (single isomer, unassigned; (+)) [(+)-2-[4-(cyclopropylsulfonyl)phenyl]-3-[(1β,3α,4α)-3,4-difluorocyclopentyl]-N-(thiazol-2-yl)propionamide]	do not exhibit high hypoglycemic activity
O=C(Nc1nccs1)C(CC1CC(F)C(F)C1)c1ccc(S(=O)(=O)C2CC2)cc1 (single isomer, unassigned; (-)) [(−)-2-[4-(Cyclopropylsulfonyl)phenyl]-3-[(1β,3α,4α)-3,4-difluorocyclopentyl]-N-(thiazol-2-yl)propionamide]	do not exhibit high hypoglycemic activity
O=C(Nc1nccs1)C(C[C@H]1C[C@@H](F)[C@@H](F)C1)c1ccc(S(=O)(=O)C2CC2)cc1 (single isomer, unassigned; (+)) [Reference Example 3, (+)-2-[4-(Cyclopropylsulfonyl)phenyl]-3-[(1α,3α,4α)-3,4-difluorocyclopentyl]-N-(thiazol-2-yl)propionamide]	do not exhibit high hypoglycemic activity
